Reference: PubChem BioAssay (NCI)
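Abbreviation: GI50, concentration required for 50% inhibition of growth. TGI: total growth inhibition.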

Tests used:
Assay in all cases: inhibition of tumour cell growth, NCI panel, 384-well format
SNB-75 CNS = tested on: SNB-75 CNS
A498 renal = tested on: A498 renal
MDA-MB-231 breast = tested on: MDA-MB-231 breast
IGROV1 ovarian = tested on: IGROV1 ovarian
HT29 colon = tested on: HT29 colon
CCRF-CEM leukemia = tested on: CCRF-CEM leukemia
SK-MEL-2 melanoma = tested on: SK-MEL-2 melanoma
PC-3 prostate = tested on: PC-3 prostate
SW-620 colon = tested on: SW-620 colon
SF-539 CNS = tested on: SF-539 CNS
786-0 renal = tested on: 786-0 renal
RXF 393 renal = tested on: RXF 393 renal
NCI-H522 lung = tested on: NCI-H522 lung
NCI-H226 lung = tested on: NCI-H226 lung
HOP-62 NSCLC = tested on: HOP-62 NSCLC
UO-31 renal = tested on: UO-31 renal
SK-MEL-28 melanoma = tested on: SK-MEL-28 melanoma
UACC-62 melanoma = tested on: UACC-62 melanoma
A549 NSCLC = tested on: A549 NSCLC
OVCAR-5 ovarian = tested on: OVCAR-5 ovarian
T-47D breast = tested on: T-47D breast
HCT-116 colon = tested on: HCT-116 colon
MDA-MB-468 breast = tested on: MDA-MB-468 breast
NCI/ADR-RES ovarian = tested on: NCI/ADR-RES ovarian
U251 glioblastoma = tested on: U251 glioblastoma
NCI-H23 lung = tested on: NCI-H23 lung
HL-60(TB) leukemia = tested on: HL-60(TB) leukemia
RPMI-8226 leukemia = tested on: RPMI-8226 leukemia
LOX IMVI melanoma = tested on: LOX IMVI melanoma
SK-OV-3 ovarian = tested on: SK-OV-3 ovarian
KM12 colon = tested on: KM12 colon
K-562 leukemia = tested on: K-562 leukemia
DU-145 prostate = tested on: DU-145 prostate
SF-295 CNS = tested on: SF-295 CNS
HCT-15 colon = tested on: HCT-15 colon
BT-549 breast = tested on: BT-549 breast
MALME-3M melanoma = tested on: MALME-3M melanoma
HOP-92 NSCLC = tested on: HOP-92 NSCLC
OVCAR-8 ovarian = tested on: OVCAR-8 ovarian
SF-268 CNS = tested on: SF-268 CNS
TK-10 renal = tested on: TK-10 renal
M14 melanoma = tested on: M14 melanoma
MOLT-4 leukemia = tested on: MOLT-4 leukemia
MCF7 breast = tested on: MCF7 breast
OVCAR-3 ovarian = tested on: OVCAR-3 ovarian
MDA-MB-435 melanoma = tested on: MDA-MB-435 melanoma
SNB-19 CNS = tested on: SNB-19 CNS
ACHN renal = tested on: ACHN renal
CAKI-1 renal = tested on: CAKI-1 renal
SN12C renal = tested on: SN12C renal

For `O=c1[nH]cc(N(CCCl)CCCl)c(=O)[nH]1`, the GI50 (SNB-75 CNS) was 29.1 µM, the GI50 (A498 renal) was 68.9 µM and the GI50 (MDA-MB-231 breast) was 35.1 µM. For the same compound, the GI50 (IGROV1 ovarian) was 91.9 µM, the GI50 (HT29 colon) was 24.5 µM and the GI50 (CCRF-CEM leukemia) was 2.21 µM. For the same compound, the TGI (CCRF-CEM leukemia) was 4.17 µM, the GI50 (SK-MEL-2 melanoma) was 68 µM and the GI50 (PC-3 prostate) was 73.1 µM. It also gave a GI50 (SW-620 colon) of 8.78 µM, a GI50 (SF-539 CNS) of 7.24 µM and a TGI (SF-539 CNS) of 29.8 µM. For the same compound, the GI50 ([…]-0 renal) was 16.8 µM, the GI50 (RXF 393 renal) was 13.2 µM and the TGI (RXF 393 renal) was 27.4 µM. It also gave a GI50 (NCI-H522 lung) of 12.7 µM, a TGI (NCI-H522 lung) of 25.6 µM and a GI50 (NCI-H226 lung) of 51.4 µM. The GI50 (HOP-62 NSCLC) was 7.79 µM, the TGI (HOP-62 NSCLC) was 31.3 µM and the GI50 (UO-31 renal) was 20.3 µM. It also gave a GI50 (SK-MEL-28 melanoma) of 65.8 µM, a GI50 (UACC-62 melanoma) of 6.43 µM and a GI50 (A549 NSCLC) of 26.8 µM. The GI50 (OVCAR-5 ovarian) was 20.1 µM, the TGI (OVCAR-5 ovarian) was 67.4 µM and the GI50 (T-47D breast) was 30 µM. For the same compound, the GI50 (HCT-116 colon) was 7.54 µM, the GI50 (MDA-MB-468 breast) was 2.73 µM and the TGI (MDA-MB-468 breast) was 14.2 µM. It also gave a GI50 (NCI/ADR-RES ovarian) of 15.8 µM, a GI50 (U251 glioblastoma) of 10.2 µM and a GI50 (NCI-H23 lung) of 12.3 µM. For the same compound, the TGI (NCI-H23 lung) was 57.9 µM, the GI50 (HL-60(TB) leukemia) was 1.23 µM and the TGI (HL-60(TB) leukemia) was 2.57 µM. The GI50 (RPMI-8226 leukemia) was 6.85 µM, the TGI (RPMI-8226 leukemia) was 20.3 µM and the GI50 (LOX IMVI melanoma) was 19.4 µM. The GI50 (SK-OV-3 ovarian) was 28.9 µM, the GI50 (KM12 colon) was 98.9 µM and the GI50 (K-562 leukemia) was 17.4 µM. For the same compound, the GI50 (DU-145 prostate) was 14.1 µM, the TGI (DU-145 prostate) was 42.1 µM and the GI50 (SF-295 CNS) was 8.54 µM. The TGI (SF-295 CNS) was 26.4 µM, the GI50 (HCT-15 colon) was 7.48 µM and the GI50 (BT-549 breast) was 11.2 µM. For the same compound, the TGI (BT-549 breast) was 46.8 µM, the GI50 (MALME-3M melanoma) was 19.2 µM and the GI50 (HOP-92 NSCLC) was 19.3 µM. The GI50 (OVCAR-8 ovarian) was 9.13 µM, the GI50 (SF-268 CNS) was 5.68 µM and the TGI (SF-268 CNS) was 41.1 µM. The GI50 (TK-10 renal) was 50 µM, the GI50 (M14 melanoma) was 9.7 µM and the TGI (M14 melanoma) was 61.6 µM. For the same compound, the GI50 (MOLT-4 leukemia) was 0.594 µM, the TGI (MOLT-4 leukemia) was 1.87 µM and the GI50 (MCF7 breast) was 18 µM. It also gave a GI50 (OVCAR-3 ovarian) of 23.5 µM, a GI50 (MDA-MB-435 melanoma) of 86.4 µM and a GI50 (SNB-19 CNS) of 24.6 µM. For the same compound, the GI50 (ACHN renal) was 2.88 µM, the TGI (ACHN renal) was 8.7 µM and the GI50 (CAKI-1 renal) was 4.39 µM. For the same compound, the TGI (CAKI-1 renal) was 76.3 µM, the GI50 (SN12C renal) was 4.66 µM and the TGI (SN12C renal) was 53.6 µM.
